PubChem BioAssay (NCI)
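Tested at 5 concentrations; 48 h exposure; 96-well plates; endpoints linearly interpolated, else capped at highest concentration. Abbreviation: GI50, concentration required for 50% inhibition of growth. Definition used: TGI = concentration required for complete inhibition of growth.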

Columns and labels:
Experiment in all cases: growth of human tumour cells (NCI), 48 h
[1] = system: 786-0 renal
[2] = system: A498 renal
[3] = system: A549 NSCLC
[4] = system: ACHN renal
[5] = system: BT-549 breast
[6] = system: CAKI-1 renal
[7] = system: CCRF-CEM leukemia
[8] = system: COLO 205 colon
[9] = system: DU-145 prostate
[10] = system: EKVX NSCLC
[11] = system: HCC-2998 colon
[12] = system: HCT-116 colon
[13] = system: HCT-15 colon
[14] = system: HL-60(TB) leukemia
[15] = system: HOP-62 NSCLC
[16] = system: HOP-92 NSCLC
[17] = system: HS 578T breast
[18] = system: HT29 colon
[19] = system: IGROV1 ovarian
[20] = system: K-562 leukemia
[21] = system: KM12 colon
[22] = system: LOX IMVI melanoma
[23] = system: M14 melanoma
[24] = system: MALME-3M melanoma
[25] = system: MCF7 breast
[26] = system: MDA-MB-231 breast
[27] = system: MDA-MB-435
[28] = system: MOLT-4 leukemia
[29] = system: NCI-H226 lung
[30] = system: NCI-H23 lung
[31] = system: NCI-H460 lung
[32] = system: NCI-H522 lung
[33] = system: NCI/ADR-RES ovarian
[34] = system: OVCAR-3 ovarian
[35] = system: OVCAR-4 ovarian
[36] = system: OVCAR-5 ovarian
[37] = system: OVCAR-8 ovarian
[38] = system: PC-3 prostate
[39] = system: RPMI-8226 leukemia
[40] = system: RXF 393 renal
[41] = system: SF-268 CNS
[42] = system: SF-295 CNS
[43] = system: SF-539 CNS
[44] = system: SK-MEL-2 melanoma
[45] = system: SK-MEL-28 melanoma
[46] = system: SK-MEL-5 melanoma
[47] = system: SK-OV-3 ovarian
[48] = system: SN12C renal
[49] = system: SNB-19 CNS
[50] = system: SNB-75 CNS
[51] = system: SR leukemia
[52] = system: SW-620 colon
[53] = system: T-47D breast
[54] = system: TK-10 renal
[55] = system: U251 CNS
[56] = system: UACC-257 melanoma
[57] = system: UACC-62 melanoma
[58] = system: UO-31 renal

Question: How did the GI50 [1] turn out when `CC(C)(C)Nc1nc2c(OCCc3ccccc3)cccn2c1-c1ccccc1Cl` was run?
Answer: 4.84 µM

Question: And the TGI [1]?
Answer: 18.1 µM

Question: What about the GI50 [2] of the same compound?
Answer: 11.8 µM

Question: What about the TGI [2] of the same compound?
Answer: 24.3 µM

Question: What about the GI50 [3] of the same compound?
Answer: 4.88 µM

Question: And the TGI [3]?
Answer: 27.1 µM

Question: What about the GI50 [4] of the same compound?
Answer: 8.82 µM

Question: And the TGI [4]?
Answer: 21 µM

Question: And the GI50 [5]?
Answer: 2.61 µM

Question: What about the TGI [5] of the same compound?
Answer: 10.2 µM

Question: And the GI50 [6]?
Answer: 5.89 µM

Question: And the TGI [6]?
Answer: 20.2 µM

Question: What about the GI50 [7] of the same compound?
Answer: 3.56 µM

Question: What about the TGI [7] of the same compound?
Answer: 16 µM

Question: What about the GI50 [8] of the same compound?
Answer: 3.49 µM

Question: And the TGI [8]?
Answer: 10.6 µM

Question: What about the GI50 [9] of the same compound?
Answer: 7.9 µM

Question: What about the TGI [9] of the same compound?
Answer: 24.6 µM

Question: And the GI50 [10]?
Answer: 3.19 µM

Question: What about the TGI [10] of the same compound?
Answer: 12.8 µM

Question: What about the GI50 [11] of the same compound?
Answer: 3.51 µM

Question: What about the TGI [11] of the same compound?
Answer: 12.5 µM

Question: And the GI50 [12]?
Answer: 4.01 µM

Question: And the TGI [12]?
Answer: 15.3 µM

Question: And the GI50 [13]?
Answer: 4.12 µM

Question: And the TGI [13]?
Answer: 15.9 µM

Question: What about the GI50 [14] of the same compound?
Answer: 2.42 µM

Question: What about the TGI [14] of the same compound?
Answer: 5.68 µM

Question: What about the GI50 [15] of the same compound?
Answer: 4.82 µM

Question: And the TGI [15]?
Answer: 18.9 µM

Question: What about the GI50 [16] of the same compound?
Answer: 2.36 µM

Question: What about the TGI [16] of the same compound?
Answer: 7.93 µM

Question: What about the GI50 [17] of the same compound?
Answer: 4.05 µM

Question: What about the TGI [17] of the same compound?
Answer: 21.4 µM

Question: What about the GI50 [18] of the same compound?
Answer: 4.62 µM

Question: What about the TGI [18] of the same compound?
Answer: 30.1 µM

Question: What about the GI50 [19] of the same compound?
Answer: 5.05 µM

Question: What about the TGI [19] of the same compound?
Answer: 17.8 µM

Question: And the GI50 [20]?
Answer: 3.25 µM

Question: What about the TGI [20] of the same compound?
Answer: 18.1 µM

Question: And the GI50 [21]?
Answer: 3.58 µM

Question: What about the TGI [21] of the same compound?
Answer: 12.4 µM

Question: What about the GI50 [22] of the same compound?
Answer: 4.08 µM

Question: What about the TGI [22] of the same compound?
Answer: 15.8 µM

Question: What about the GI50 [23] of the same compound?
Answer: 3.9 µM

Question: And the TGI [23]?
Answer: 15.3 µM

Question: And the GI50 [24]?
Answer: 2.23 µM

Question: What about the TGI [24] of the same compound?
Answer: 5.52 µM

Question: And the GI50 [25]?
Answer: 3.35 µM

Question: And the TGI [25]?
Answer: 14.7 µM

Question: What about the GI50 [26] of the same compound?
Answer: 5.95 µM

Question: And the TGI [26]?
Answer: 19 µM

Question: And the GI50 [27]?
Answer: 3.29 µM

Question: And the TGI [27]?
Answer: 11.2 µM

Question: What about the GI50 [28] of the same compound?
Answer: 3.63 µM

Question: And the TGI [28]?
Answer: 17 µM

Question: What about the GI50 [29] of the same compound?
Answer: 3.52 µM

Question: What about the TGI [29] of the same compound?
Answer: 16.6 µM

Question: And the GI50 [30]?
Answer: 3.67 µM

Question: And the TGI [30]?
Answer: 13.8 µM

Question: What about the GI50 [31] of the same compound?
Answer: 3.76 µM

Question: What about the TGI [31] of the same compound?
Answer: 13.4 µM

Question: What about the GI50 [32] of the same compound?
Answer: 3.75 µM

Question: And the TGI [32]?
Answer: 15.3 µM

Question: What about the GI50 [33] of the same compound?
Answer: 6.4 µM

Question: And the TGI [33]?
Answer: 20.5 µM

Question: And the GI50 [34]?
Answer: 2.93 µM

Question: What about the TGI [34] of the same compound?
Answer: 9.75 µM

Question: And the GI50 [35]?
Answer: 3.61 µM

Question: And the TGI [35]?
Answer: 14.9 µM

Question: And the GI50 [36]?
Answer: 11.9 µM

Question: And the TGI [36]?
Answer: 24.7 µM

Question: And the GI50 [37]?
Answer: 4.36 µM

Question: And the TGI [37]?
Answer: 20 µM

Question: And the GI50 [38]?
Answer: 3.37 µM

Question: What about the TGI [38] of the same compound?
Answer: 15.5 µM

Question: And the GI50 [39]?
Answer: 2.78 µM

Question: What about the TGI [39] of the same compound?
Answer: 7.5 µM

Question: What about the GI50 [40] of the same compound?
Answer: 9.26 µM

Question: What about the TGI [40] of the same compound?
Answer: 22.3 µM

Question: What about the GI50 [41] of the same compound?
Answer: 4.52 µM

Question: And the TGI [41]?
Answer: 18.8 µM

Question: What about the GI50 [42] of the same compound?
Answer: 3.19 µM

Question: What about the TGI [42] of the same compound?
Answer: 12.6 µM

Question: And the GI50 [43]?
Answer: 10.7 µM

Question: What about the TGI [43] of the same compound?
Answer: 22.5 µM

Question: What about the GI50 [44] of the same compound?
Answer: 2.72 µM

Question: What about the TGI [44] of the same compound?
Answer: 8.33 µM

Question: What about the GI50 [45] of the same compound?
Answer: 3.45 µM

Question: And the TGI [45]?
Answer: 13.1 µM

Question: And the GI50 [46]?
Answer: 2.01 µM

Question: And the TGI [46]?
Answer: 4.43 µM

Question: And the GI50 [47]?
Answer: 3.82 µM

Question: And the TGI [47]?
Answer: 16.9 µM

Question: What about the GI50 [48] of the same compound?
Answer: 3.03 µM

Question: And the TGI [48]?
Answer: 12.7 µM

Question: And the GI50 [49]?
Answer: 3.35 µM

Question: What about the TGI [49] of the same compound?
Answer: 13.1 µM

Question: What about the GI50 [50] of the same compound?
Answer: 1.58 µM

Question: And the TGI [50]?
Answer: 13.9 µM

Question: And the GI50 [51]?
Answer: 3.89 µM

Question: And the TGI [51]?
Answer: 43.4 µM

Question: What about the GI50 [52] of the same compound?
Answer: 4.91 µM

Question: And the TGI [52]?
Answer: 17.7 µM

Question: And the GI50 [53]?
Answer: 2.35 µM

Question: And the TGI [53]?
Answer: 17.1 µM

Question: What about the GI50 [54] of the same compound?
Answer: 6.49 µM

Question: What about the TGI [54] of the same compound?
Answer: 20.4 µM

Question: What about the GI50 [55] of the same compound?
Answer: 3.14 µM

Question: What about the TGI [55] of the same compound?
Answer: 12.5 µM

Question: What about the GI50 [56] of the same compound?
Answer: 3.52 µM

Question: What about the TGI [56] of the same compound?
Answer: 13 µM

Question: What about the GI50 [57] of the same compound?
Answer: 2.22 µM

Question: What about the TGI [57] of the same compound?
Answer: 6.55 µM

Question: What about the GI50 [58] of the same compound?
Answer: 3.2 µM

Question: What about the TGI [58] of the same compound?
Answer: 16.8 µM
